Measurements published in paper PMC5987058, “Therapeutic Potential of a Scorpion Venom-Derived Antimicrobial Peptide and Its Homologs Against Antibiotic-Resistant Gram-Positive Bacteria” (Frontiers in Microbiology, 2018).
In brackets after ≈: the same amount, converted by molar mass. Like-named read-outs stand apart in the source and are kept apart here. Ends that are not written are not given here.

Key:
[1] = system: Escherichia coli ATCC25922; conditions: comparison values; ref Zeng et al., 2004, 2012; Cao et al., 2012a; cited from earlier work
Description: (§1) Table 1 In Vitro antimicrobial activities of marcin-18 and its homologs compared with other peptides and antibiotics. | column: MIC (μM) / BmKn2; MIC (μM) / Amp; MIC (μM) / Kana

[2] = system: Staphylococcus aureus AB94004; conditions: comparison values; ref Zeng et al., 2004, 2012; Cao et al., 2012a; cited from earlier work
Description: as §1

MRSA P1381 [3] = assay: Mouse peritonitis model; format: in vivo, BALB/c mice; conditions: n = 6
Protocol: Six to eight-week-old male BALB/c mice (18–21 g) were purchased from the Animal Center for Disease Control and Prevention (Hubei, China) and maintained under specific pathogen-free conditions at 25 ± 2°C and 50 ± 5% humidity, on a 12 h/12 h light/dark cycle.
All methods were performed in accordance with the relevant guidelines ([Dai et al., 2008]; [Peng et al., 2017]). The mice were intraperitoneally (i.p.) injected with 0.5 mL/mouse (5.85 × 10^7 CFU) of the exponential phase MRSA P1381 inoculum in physiological saline containing 5% (wt/v) mucin. At 1 h after the bacterial infection, the mice were i.p. injected with 0.4 mL/mouse of physiological saline (I) (to serve as a negative control), marcin-18 peptide (10 mg/kg) (II), marcin-18 peptide (25 mg/kg) (III), meucin-18 peptide (25 mg/kg) (IV), megicin-18 peptide (25 mg/kg) (V), and vancomycin (25 mg/kg) (VI). The vancomycin dose was set based on previous studies ([Cavanagh et al., 2013]; [Wang et al., 2018]). Each group included 6 mice. After another 24 h post administration, subject peritonea were lavaged with 1 mL of physiological saline and lavage fluids were then collected. Ascites were diluted and plated on LB agar so that the number of bacterial colonies could be counted. The ability of the three peptides to rescue mice from lethal bacteremia was observed 2–4 times daily and survival was tracked for 7 days.

MRSA P1369 = conditions: methicillin-resistant clinical isolate; comparison values; ref Zeng et al., 2004, 2012; Cao et al., 2012a; cited from earlier work
Description: (§2) Table 1 In Vitro antimicrobial activities of marcin-18 and its homologs compared with other peptides and antibiotics. | column: MIC (μM) / BmKn2; MIC (μM) / Van

MRSA P1374 [4] = conditions: methicillin-resistant clinical isolate; comparison values; ref Zeng et al., 2004, 2012; Cao et al., 2012a; cited from earlier work
Description: as §2

MRSA P1381 [5] = conditions: methicillin-resistant clinical isolate; comparison values; ref Zeng et al., 2004, 2012; Cao et al., 2012a; cited from earlier work
Description: as §2

MRSA P1386 = conditions: methicillin-resistant clinical isolate; comparison values; ref Zeng et al., 2004, 2012; Cao et al., 2012a; cited from earlier work
Description: as §2

PRSA P1383 = conditions: penicillin-resistant clinical isolate; comparison values; ref Zeng et al., 2004, 2012; Cao et al., 2012a; cited from earlier work
Description: as §2

PRSA P1389 [6] = conditions: penicillin-resistant clinical isolate; comparison values; ref Zeng et al., 2004, 2012; Cao et al., 2012a; cited from earlier work
Description: as §2

[7] = system: Bacillus subtilis AB91021; assay: MIC, broth microdilution; format: cell-based; conditions: LB medium, 10^5–10^6 CFU/mL, 16–18 h at 37°C, triplicate
Protocol: (§3) The antimicrobial activity was determined via a broth microdilution assay according to the procedure recommended by the Clinical and Laboratory Standards Institute with some modifications ([Hou et al., 2011]; [Li et al., 2016]). Bacteria were cultured in Luria-Bertani (LB) broth to OD600 = 0.6 at 37°C, then diluted to 10^5–10^6 CFU/mL in LB medium. Peptides were serially double diluted to a gradient concentration range from 48.3 to 1.5 μM in physiological saline. Eighty microliters of the bacterial suspension and 20 μL of diluted peptide at varying concentrations were added to 96-well plates, and then incubated for 16–18 h at 37°C with continuous shaking at 250 rpm. The antimicrobial activity of ampicillin and kanamycin were also tested as positive controls. Experiments were performed in triplicate. The minimum inhibitory concentration (MIC) was determined as the lowest peptide concentration at which no bacterial growth was observed.

[8] = system: Bacillus thuringiensis AB92037; assay: MIC, broth microdilution; format: cell-based; conditions: LB medium, 10^5–10^6 CFU/mL, 16–18 h at 37°C, triplicate
Protocol: as §3

Escherichia coli AB94012 = assay: MIC, broth microdilution; format: cell-based; conditions: LB medium, 10^5–10^6 CFU/mL, 16–18 h at 37°C, triplicate
Protocol: as §3

[9] = system: Escherichia coli ATCC25922; assay: MIC, broth microdilution; format: cell-based; conditions: LB medium, 10^5–10^6 CFU/mL, 16–18 h at 37°C, triplicate
Protocol: as §3

[10] = system: Micrococcus luteus AB93113; assay: MIC, broth microdilution; format: cell-based; conditions: LB medium, 10^5–10^6 CFU/mL, 16–18 h at 37°C, triplicate
Protocol: as §3

[11] = system: Pseudomonas aeruginosa ATCC9027; assay: MIC, broth microdilution; format: cell-based; conditions: LB medium, 10^5–10^6 CFU/mL, 16–18 h at 37°C, triplicate
Protocol: as §3

[12] = system: Staphylococcus aureus AB208193; assay: MIC, broth microdilution; format: cell-based; conditions: LB medium, 10^5–10^6 CFU/mL, 16–18 h at 37°C, triplicate
Protocol: as §3

[13] = system: Staphylococcus aureus ATCC25923; assay: MIC, broth microdilution; format: cell-based; conditions: LB medium, 10^5–10^6 CFU/mL, 16–18 h at 37°C, triplicate
Protocol: as §3

[14] = system: Staphylococcus aureus ATCC6538; assay: MIC, broth microdilution; format: cell-based; conditions: LB medium, 10^5–10^6 CFU/mL, 16–18 h at 37°C, triplicate
Protocol: as §3

[15] = system: Staphylococcus epidermidis AB208187; assay: MIC, broth microdilution; format: cell-based; conditions: LB medium, 10^5–10^6 CFU/mL, 16–18 h at 37°C, triplicate
Protocol: as §3

[16] = system: Staphylococcus epidermidis AB208188; assay: MIC, broth microdilution; format: cell-based; conditions: LB medium, 10^5–10^6 CFU/mL, 16–18 h at 37°C, triplicate
Protocol: as §3

MRSA P1374 [17] = assay: MIC, broth microdilution; format: cell-based, Staphylococcus aureus; conditions: methicillin-resistant clinical isolate, LB medium, 10^5–10^6 CFU/mL, 16–18 h at 37°C, triplicate
Protocol: as §3

MRSA P1381 [18] = assay: MIC, broth microdilution; format: cell-based, Staphylococcus aureus; conditions: methicillin-resistant clinical isolate, LB medium, 10^5–10^6 CFU/mL, 16–18 h at 37°C, triplicate
Protocol: as §3

PRSA P1389 [19] = assay: MIC, broth microdilution; format: cell-based, Staphylococcus aureus; conditions: penicillin-resistant clinical isolate, LB medium, 10^5–10^6 CFU/mL, 16–18 h at 37°C, triplicate
Protocol: as §3

S. aureus AB94004 [20] = assay: Competition assay with LPS or LTA (MIC); format: cell-based, Staphylococcus aureus; conditions: 30 min, n = 3; for MIC, peptide treated with LPS 1: 1 mg/mL peptide + equal volume 5 mg/mL LPS from E. coli; for MIC, peptide treated with LTA: 1 mg/mL peptide + equal volume 5 mg/mL LTA from S. aureus; for MIC, peptide treated with LPS 1+LTA: peptide incubated with LPS 1 and LTA
Protocol: 1 mg/mL of peptides were incubated with an equal volume of 5 mg/mL of the lipopolysaccharide (LPS, Sigma-Aldrich: L3012/L8643) or lipoteichoic acid (LTA, Sigma-Aldrich: L2515) for 30 min. The MICs of peptides treated with LPS or LTA against S. aureus AB94004 were subsequently measured.

[21] = system: Staphylococcus aureus AB94004; assay: MIC, broth microdilution; format: cell-based; conditions: legend of Figure 6
Protocol: as §3

S. aureus AB94004 [22] = assay: SYTOX green fluorescence measurement (membrane integrity); format: cell-based, Staphylococcus aureus; conditions: positive control; 5 μM SYTOX green; n = 3
Protocol: S. aureus AB94004 were cultured to exponential phase (ca. 10^7 CFU/mL), centrifuged and suspended in physiological saline. Then the fluorescence dye SYTOX green (Invitrogen) was added at a final concentration of 5 μM. After incubation for 10 min, 50 μL bacterial culture and equal volume of peptides serially diluted in physiological saline at final concentrations of 1 × MIC, 2 × MIC, and 4 × MIC were added in a Greiner 96-well flat-bottom black plate. Physiological saline and MSI 78 were used as negative and positive controls. Fluorescence was measured over 30 min at the excitation and emission wavelengths of 488 and 525 nm, respectively.

Row | Molecule | MIC [7] | MIC [8] | MIC (Escherichia coli AB94012) | MIC [9] | MIC [10] | MIC [11] | MIC [12] | MIC [13] | MIC [14] | MIC [15] | MIC [16] | MIC (MRSA P1374 [17]) | MIC (MRSA P1381 [18]) | MIC (PRSA P1389 [19]) | other results
1 | CC1(C)S[C@@H]2[C@H](NC(=O)[C@H](N)c3ccccc3)C(=O)N2[C@H]1C(=O)O [Amp, ampicillin] | – | – | – | – | – | – | – | – | – | – | – | – | – | – | MIC [1]: 33.7 µM (≈ 11.8 µg/mL); MIC [2]: 67.3 µM (≈ 23.5 µg/mL)
2 | CN[C@H](CC(C)C)C(=O)N[C@H]1C(=O)N[C@@H](CC(N)=O)C(=O)N[C@H]2C(=O)N[C@H]3C(=O)N[C@H](C(=O)N[C@H](C(=O)O)c4cc(O)cc(O)c4-c4cc3ccc4O)[C@H](O)c3ccc(c(Cl)c3)Oc3cc2cc(c3O[C@@H]2O[C@H](CO)[C@@H](O)[C@H](O)[C@H]2O[C@H]2C[C@](C)(N)[C@H](O)[C@H](C)O2)Oc2ccc(cc2Cl)[C@H]1O [Van, vancomycin] | – | – | – | – | – | – | – | – | – | – | – | – | – | – | survival of infected mice (MRSA P1381 [3]; 25 mg/kg i.p. single dose 1 h after i.p. 5.85 × 10^7 CFU MRSA P1381, 7 days): 100%; bacteria in ascites of antibiotic-treated group (MRSA P1381 [3]; 25 mg/kg i.p., peritoneal lavage 24 h after administration): few detectable bacteria; MIC (MRSA P1369): 4.2 µM (≈ 6.09 µg/mL); MIC (MRSA P1374 [4]): 4.2 µM (≈ 6.09 µg/mL); MIC (MRSA P1381 [5]): 2.1 µM (≈ 3.04 µg/mL); MIC (MRSA P1386): 2.1 µM (≈ 3.04 µg/mL); MIC (PRSA P1383): 4.2 µM (≈ 6.09 µg/mL); MIC (PRSA P1389 [6]): 4.2 µM (≈ 6.09 µg/mL)
3 | FFGHLFKLATKIIPSLFQ-NH2 [Meucin-18] | 3.0 µM | 3.0 µM | 23.7 µM | 11.9 µM | 47.5 µM | 11.9 µM | 3.0 µM | 3.0 µM | 1.5 µM | 3.0 µM | 1.5 µM | 3.0 µM | 1.5 µM | 3.0 µM | –
4 | FFGHLFKLATKIIPSLFR-NH2 [Marcin-18] | 2.9 µM | 2.9 µM | 11.7 µM | 5.9 µM | 23.4 µM | 5.9 µM | 2.9 µM | 2.9 µM | 1.5 µM | 2.9 µM | 2.9 µM | 2.9 µM | 1.5 µM | 2.9 µM | MIC, peptide treated with LPS 1 (S. aureus AB94004 [20]): 2.9 µM; MIC, peptide treated with LPS 2 (S. aureus AB94004 [20]; 1 mg/mL peptide + equal volume 5 mg/mL LPS from P. aeruginosa): 2.9 µM; MIC, peptide treated with LTA (S. aureus AB94004 [20]): 2.9 µM; MIC, peptide treated with LPS 1+LTA (S. aureus AB94004 [20]): 2.9 µM
5 | CC[C@H](C)[C@H](NC(=O)CN)C(=O)NCC(=O)N[C@@H](C)C(=O)N[C@H](C(=O)N[C@@H](CC(C)C)C(=O)N[C@@H](CCCCN)C(=O)N[C@H](C(=O)N[C@@H](CC(C)C)C(=O)N[C@H](C(=O)N[C@H](C(=O)NCC(=O)N[C@@H](CC(C)C)C(=O)N1CCC[C@H]1C(=O)N[C@@H](C)C(=O)N[C@@H](CC(C)C)C(=O)N[C@H](C(=O)N[C@@H](CO)C(=O)N[C@@H](Cc1c[nH]c2ccccc12)C(=O)N[C@H](C(=O)N[C@@H](CCCCN)C(=O)N[C@@H](CCCNC(=N)N)C(=O)N[C@@H](CCCCN)C(=O)N[C@@H](CCCNC(=N)N)C(=O)N[C@@H](CCC(N)=O)C(=O)N[C@@H](CCC(N)=O)C(N)=O)[C@@H](C)CC)[C@@H](C)CC)[C@@H](C)O)[C@@H](C)O)C(C)C)C(C)C [melittin] | – | – | – | – | – | – | – | – | – | – | – | – | – | – | MIC of control substances [21]: 2.2 µM
6 | GIGKFLKKAKKFGKAFVKILKK-NH2 (C-terminus assumed) [MSI 78] | – | – | – | – | – | – | – | – | – | – | – | – | – | – | MIC of control substances [21]: 2.5 µM; SYTOX green fluorescence (S. aureus AB94004 [22]): stable increase
7 | FFGALFKLATKIIPSLFR-NH2 [Megicin-18] | 3.0 µM | 1.5 µM | >48.3 µM | 12.1 µM | >48.3 µM | 12.1 µM | 3.0 µM | 3.0 µM | 1.5 µM | 1.5 µM | 1.5 µM | 3.0 µM | 3.0 µM | 1.5 µM | MIC, peptide treated with LPS 1 (S. aureus AB94004 [20]): 3 µM; MIC, peptide treated with LTA (S. aureus AB94004 [20]): 3 µM; MIC, peptide treated with LPS 1+LTA (S. aureus AB94004 [20]): 3 µM
